Measurements reported in ChEMBL document CHEMBL1201862, “PubChem BioAssay data set” (2004).
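All cell lines were grown in 96-well plates and treated with compound for 48 hours. GI50 is the concentration that inhibits growth by half.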 The source made the active and inactive calls. Rule as the data show it: active = GI50 up to about 1.1 µM and inactive = higher.

Columns and labels:
Assay in all cases: NCI tumour cell line growth inhibition, 48 h
BT-549 = test system: BT-549
T47D = test system: T47D
DMS-114 = test system: DMS-114
DMS-273 = test system: DMS-273
HOP-18 = test system: HOP-18
LXFL 529 = test system: LXFL 529
M19-MEL = test system: M19-MEL
SNB-78 = test system: SNB-78

For `Cn1c(=S)c2nc(SCCCc3ccccc3)[nH]c2n(C)c1=O`, the GI50 (BT-549) was 45.1 µM (inactive) and the GI50 (T47D) was 14.6 µM (inactive).

In the case of `O=C1Nc2ccccc2/C1=N/Nc1ccccc1Cl`, the GI50 (BT-549) is reported as > 100 µM (inactive) and the GI50 (T47D) is reported as 12.5 µM (inactive).

For `Cc1cc(C)c(O)c(Cc2cccc(Cc3cc(C)cc(C)c3O)c2O)c1`, the GI50 (BT-549) was > 100 µM (inactive) and the GI50 (T47D) was > 100 µM (inactive).

In the case of `CCOc1ccccc1-c1nc2c(s1)C(=O)c1ccccc1C2=O`, the GI50 (T47D) is reported as 16.9 µM (inactive).

For `OCc1cc2c([nH]c3ccccc32)c(C(O)CO)n1` (centres undefined), the GI50 (BT-549) was > 100 µM (inactive) and the GI50 (T47D) was > 100 µM (inactive).

With `O=C(/C=C1\Nc2ccc([N+](=O)[O-])cc2N=C1NC12CC3CC(CC(C3)C1)C2)c1ccccc1` the GI50 (T47D) was > 10 µM (inactive).

In the case of `CC[P+](C)(Cc1ccccc1)c1ccccc1` (centres undefined), the GI50 (DMS-114) is reported as 87.7 µM (inactive), the GI50 (DMS-273) is reported as > 100 µM (inactive) and the GI50 (HOP-18) is reported as > 100 µM (inactive). For the same compound, the GI50 (LXFL 529) was 74.6 µM (inactive), the GI50 (M19-MEL) was 43.4 µM (inactive) and the GI50 (SNB-78) was > 100 µM (inactive).

In the case of `CC(=O)c1cccc(C)c1C(=O)O`, the GI50 (DMS-114) is reported as > 100 µM (inactive), the GI50 (DMS-273) is reported as > 100 µM (inactive) and the GI50 (HOP-18) is reported as > 100 µM (inactive). For the same compound, the GI50 (LXFL 529) was > 100 µM (inactive), the GI50 (M19-MEL) was > 100 µM (inactive) and the GI50 (SNB-78) was 95.5 µM (inactive).

In the case of `CCOC(=O)c1nc2cc(C(F)(F)F)ccc2nc1Nc1ccc(F)cc1`, the GI50 (BT-549) is reported as 25.9 µM (inactive) and the GI50 (T47D) is reported as > 100 µM (inactive).

For `CSc1nc2c(c(=O)[nH]1)N=C(c1ccccc1)CC(c1ccccc1)N2` (centres undefined), the GI50 (BT-549) was 28.5 µM (inactive).

For `CC(C)/C(Cl)=N\OC(=O)Nc1cccc(Cl)c1`, the GI50 (T47D) was 26.8 µM (inactive).

`O=c1[nH]nc(Cc2ccccc2)n1O` was tested, and the GI50 (BT-549) was > 100 µM (inactive) and the GI50 (T47D) was > 100 µM (inactive).

With `COc1cccc2c1-c1c(OC)cccc1SS2` the GI50 (BT-549) was 27.6 µM (inactive).

For `COc1cc2ccc(C(=O)O)cc2cc1OC`, the GI50 (DMS-273) was > 100 µM (inactive), the GI50 (HOP-18) was > 100 µM (inactive) and the GI50 (LXFL 529) was > 100 µM (inactive). The GI50 (M19-MEL) was > 100 µM (inactive) and the GI50 (SNB-78) was > 100 µM (inactive).

For `C=CCOc1ccc(C(=N/NC(=O)c2ccccc2)/N=N/c2ccc(C)cc2)cc1OC`, the GI50 (BT-549) was 18.3 µM (inactive) and the GI50 (T47D) was 14.2 µM (inactive).

In the case of `Cc1nn(C(=O)c2ccncc2)c2c1C(c1ccccc1O)SC(=N)N2` (centres undefined), the GI50 (BT-549) is reported as > 10 µM (inactive) and the GI50 (T47D) is reported as > 10 µM (inactive).

In the case of `CCC1=C(CC)C1(C#N)[N+](=O)[O-]`, the GI50 (DMS-114) is reported as > 100 µM (inactive), the GI50 (DMS-273) is reported as > 100 µM (inactive) and the GI50 (LXFL 529) is reported as > 100 µM (inactive). The GI50 (M19-MEL) was > 100 µM (inactive) and the GI50 (SNB-78) was > 100 µM (inactive).

For `O=C(/C=C\c1ccccc1-c1ccccc1)c1ccccc1`, the GI50 (T47D) was 15.8 µM (inactive).

In the case of `O=C(Nc1ccc(Cl)cc1)c1cc(S(=O)(=O)Nc2n[nH]c(=O)[nH]2)c(SSc2cc(Cl)c(C(=O)Nc3ccc(Cl)cc3)cc2S(=O)(=O)Nc2n[nH]c(=O)[nH]2)cc1Cl`, the GI50 (BT-549) is reported as > 100 µM (inactive).

In the case of `COc1cc2c(cc1O)C1Cc3ccc(OC)c(O)c3C(C2)N1C` (centres undefined), the GI50 (BT-549) is reported as > 100 µM (inactive) and the GI50 (T47D) is reported as > 100 µM (inactive).

In the case of `CC(C)c1cccc(C(C)C)c1NC(=O)CCC(=O)NN`, the GI50 (DMS-114) is reported as > 100 µM (inactive), the GI50 (DMS-273) is reported as 61.5 µM (inactive) and the GI50 (HOP-18) is reported as > 100 µM (inactive). The GI50 (LXFL 529) was > 100 µM (inactive), the GI50 (M19-MEL) was > 100 µM (inactive) and the GI50 (SNB-78) was > 100 µM (inactive).

With `O=C(CC/C(CC(=O)c1ccc(Cl)cc1)=N\O)Nc1cccc(Cl)c1` the GI50 (DMS-114) was > 100 µM (inactive), the GI50 (DMS-273) was > 100 µM (inactive) and the GI50 (LXFL 529) was > 100 µM (inactive). For the same compound, the GI50 (M19-MEL) was > 100 µM (inactive) and the GI50 (SNB-78) was > 100 µM (inactive).

In the case of `CCOP(=O)(OCC)OC1c2[nH]ccc2-c2cc(C(=O)OC)[nH]c2C1OC` (centres undefined), the GI50 (BT-549) is reported as 36.5 µM (inactive) and the GI50 (T47D) is reported as 51.8 µM (inactive).

With `CCSC1=N/C(=C/c2ccccc2O)C(=O)N1` the GI50 (BT-549) was > 100 µM (inactive) and the GI50 (T47D) was 60.7 µM (inactive).

In the case of `Cc1nc2cc(/N=N/c3c(O)ccc4ccccc34)ccc2[nH]1`, the GI50 (BT-549) is reported as 27.2 µM (inactive), the GI50 (DMS-114) is reported as 25.8 µM (inactive) and the GI50 (DMS-273) is reported as 19.4 µM (inactive). The GI50 (LXFL 529) was 19.9 µM (inactive), the GI50 (M19-MEL) was 23.2 µM (inactive) and the GI50 (SNB-78) was 83 µM (inactive). For the same compound, the GI50 (T47D) was 21 µM (inactive).

In the case of `Cc1cc(C)c2c(c1)CN1CN2Cc2cc(C)cc(C)c21`, the GI50 (DMS-273) is reported as 18.9 µM (inactive), the GI50 (HOP-18) is reported as 36.4 µM (inactive) and the GI50 (LXFL 529) is reported as 32.7 µM (inactive). For the same compound, the GI50 (M19-MEL) was 23 µM (inactive) and the GI50 (SNB-78) was 17.5 µM (inactive).

For `c1csc(-c2sc(-c3ccsc3)cc2Cc2ccsc2)c1`, the GI50 (T47D) was > 10 µM (inactive).

`CC(=O)O[C@H]1[C@@H](OC2CCCC2(c2ccccc2)c2ccccc2)O[N+]([O-])=C[C@@H]1c1ccccc1` (some centres undefined) was tested, and the GI50 (BT-549) was 4.24 µM (inactive) and the GI50 (T47D) was 7.52 µM (inactive).

`Cn1c(=O)c2c(ncn2Cc2ccc(O)c([N+](=O)[O-])c2)n(C)c1=O` was tested, and the GI50 (BT-549) was > 100 µM (inactive) and the GI50 (T47D) was > 100 µM (inactive).

`COc1ccc(/C=N/N=C(\N)NO)c(OC)c1OC` was tested, and the GI50 (T47D) was 28.1 µM (inactive).

In the case of `O=CNCCCN1CCN(CCCNC=O)CC1`, the GI50 (BT-549) is reported as > 100 µM (inactive) and the GI50 (T47D) is reported as > 100 µM (inactive).

In the case of `CC1CC/C(=C\c2ccc(F)cc2)C2=C1C(c1ccc(F)cc1)NC(=S)N2` (centres undefined), the GI50 (BT-549) is reported as 35.1 µM (inactive) and the GI50 (T47D) is reported as 12.9 µM (inactive).

With `Cc1cc2nc(C=C(C(F)(F)F)C(F)(F)F)sc2cc1C` the GI50 (BT-549) was 0.855 µM (active) and the GI50 (T47D) was 0.142 µM (active).

In the case of `O=C(NN=C1CCN(Cc2ccccc2)CC1)C(O)(c1ccccc1)c1ccccc1`, the GI50 (T47D) is reported as > 100 µM (inactive).

With `CCC1(c2ccc(OC)c(OC)c2)CCN2C(=O)C(O)CC21` (centres undefined) the GI50 (BT-549) was > 100 µM (inactive) and the GI50 (T47D) was > 100 µM (inactive).
